Laboratory results as given in paper PMC545952, “Analysis of the kinetic mechanism of recombinant human isoprenylcysteine carboxylmethyltransferase (Icmt)” (BMC Biochemistry, 2004).
“And” between values parts separate entries of the source, which are not always exact repeats. Equal entries are not always repeated. Where two headings read alike, the source gives them in different places.

Legend:
recombinant human Icmt = target: T1, recombinant human Icmt (Homo sapiens, UniProt O60725); experiment: Icmt assay: [3H]methyl incorporation into BFC, Sf9 membranes containing recombinant human Icmt; assay type: biochemical; details: for Km: substrate of recombinant human Icmt, in vitro methylation assay, read-out: Km (apparent) as substrate
T1 construct: a recombinant baculovirus containing the entire open reading frame of the human Icmt cDNA; made in house; host or cells: Sf9 insect cells (baculovirus); membrane fraction used
T1 sequence (O60725 whole entry): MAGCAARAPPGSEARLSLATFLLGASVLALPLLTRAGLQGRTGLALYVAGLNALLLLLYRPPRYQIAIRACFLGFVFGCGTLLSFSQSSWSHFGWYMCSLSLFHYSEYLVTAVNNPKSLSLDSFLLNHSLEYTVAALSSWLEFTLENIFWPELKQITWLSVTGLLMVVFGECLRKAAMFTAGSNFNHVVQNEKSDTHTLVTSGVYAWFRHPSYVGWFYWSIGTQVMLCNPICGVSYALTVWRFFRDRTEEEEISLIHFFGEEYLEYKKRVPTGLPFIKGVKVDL
Description: Streptavidin-sepharose beads were purchased from Amersham, trans, trans-farnesyl bromide, biotin N-hydroxysuccinimide ester and S-(5'-adenosyl)-L-methionine p-toluenesulfonate were purchased from Sigma-Aldrich, L-cysteine was purchased from Novabiochem, [^3H-methyl]-S-adenosyl-L-methionine was purchased from Perkin Elmer Life Sciences, farnesylthioacetic acid (FTA) was purchased from Biomol, S-(5'-adenosyl)-L-homocysteine was purchased from Fluka. The N-acetyl-S-farnesylcysteine methyl ester (AFCME) and N-acetyl-S-farnesylcysteine methyl amide (AFCMA) were synthesized as previously described ([24-26]). Recombinant human Icmt was prepared by infection of Sf9 cells with a recombinant baculovirus containing the entire open reading frame of the human Icmt cDNA as described. The membrane fraction of the infected Sf9 cells, isolated as described for studies with the Rce1 protease, was used as the source of Icmt for all studies described.
The assay developed for Icmt activity involved quantitation of [^3H]methyl incorporation into the small molecule substrate BFC. For the standard assay, reactions were initiated by addition of Sf9 membranes containing Icmt (0.5 μg protein) to an assay mixture containing BFC (4 μM) and [^3H]AdoMet (5 μM, 1.3 Ci/mmol) in100 mM Hepes, pH 7.4 and 5 mM MgCl2 in a total volume of 45 μl. Reactions were carried out for 20 min at 37°C, whereupon they were terminated by addition of 5 μl of 10% Tween 20. Following termination, streptavidin beads (10 μl of packed beads suspended in 500 μl of 20 mM NaH2PO4, pH 7.4, contaning 150 mM NaCl) were added, and the mixtures mixed by gentle agitation overnight at 4°C. The beads were harvested by centrifugation in a tabletop microcentrifuge at 10,000 rpm for 5 min and washed 3 times with 500 μl of 20 mM NaH2PO4, pH 7.4, containing 150 mM NaCl. The beads were then suspended in 100 μl of the same buffer, transferred to scintillation vials, and radioactivity determined. For the kinetic analyses, the concentrations of substrates (AdoMet, BFC) or additional ligands (eg. AdoHcy, AFCME, etc) were varied as detailed in the legends to the appropriate figures.

[1] = target: methyltransferase activity in rod outer segments; details: cited from earlier work; for Ki: previous study, rod outer segments
[2] = varied AdoMet, fixed BFC 4 μM, read-out: Ki with respect to AdoMet
[3] = varied BFC, fixed AdoMet 5 μM, read-out: Ki with respect to BFC

type of inhibition with respect to AdoMet (recombinant human Icmt; varied AdoMet, fixed BFC 4 μM)	type of inhibition with respect to BFC (recombinant human Icmt; varied BFC, fixed AdoMet 5 μM)	Ki (recombinant human Icmt; [3])	Structure (SMILES)	further results
Competitive	Competitive	3600 nM and 3590 nM	Nc1ncnc2c1ncn2[C@@H]1O[C@H](CSCC[C@H](N)C(=O)O)[C@@H](O)[C@H]1O [AdoHcy, S-adenosyl-L-homocysteine]	Ki (recombinant human Icmt; [2]): 3500 nM and 3540 nM
–	–	–	C[S+](CC[C@H](N)C(=O)[O-])C[C@H]1O[C@@H](n2cnc3c(N)ncnc32)[C@H](O)[C@@H]1O (stereo partly drawn) [AdoMet, S-adenosyl-L-methionine]	Km (recombinant human Icmt): 7.8 µM
–	–	–	CNC(=O)[C@H](CSCC=C(C)CCC=C(C)CCC=C(C)C)NC(C)=O [AFCMA, N-acetyl-S-farnesyl-L-cysteine methyl amide]	product inhibition results compared with AFCME (recombinant human Icmt; second prenylcysteine-type product analog, data not shown): essentially identical results
Mixed-type	Noncompetitive	1900 nM and 1910 nM	COC(=O)[C@H](CSCC=C(C)CCC=C(C)CCC=C(C)C)NC(C)=O [AFCME, N-acetyl-S-farnesyl-L-cysteine methylester]	Ki (recombinant human Icmt; [2]): 2400 nM and 2430 nM; Ki ([1]; compared with the value with respect to BFC, read-out: inhibition constant with respect to prenylcysteine substrate): 41000 nM; Ki ([1]; read-out: inhibition constant with respect to AdoMet): 73000 nM
–	–	–	CC(=O)N[C@@H](CSCC=C(C)CCC=C(C)CCC=C(C)C)C(=O)O [AFC, N-acetyl-L-farnesylcysteine]	apparent Km relative to Km of BFC (recombinant human Icmt; AFC Km (ref 20, 31) versus BFC Km 2.1 μM): 10 fold; Km ([1]; read-out: apparent Km as substrate): 20 µM
–	–	–	CC(C)=CCC/C(C)=C/CC/C(C)=C/CSC[C@H](NC(=O)CCCCC1SCC2NC(=O)NC21)C(=O)O (stereo partly drawn) [BFC, biotin-S-farnesyl-L-cysteine]	Km (recombinant human Icmt): 2.1 µM
Uncompetitive	Competitive	1200 nM and 1170 nM	CC(C)=CCC/C(C)=C/CC/C(C)=C/CSCC(=O)O [FTA, S-farnesylthioacetic acid]	–
